Measured values taken from PubChem BioAssay AID2060887 (Molecular Pharmacology Branch, DTP, NCI, 2025).

Tested on: 782815-120-R-J1-PDC complex spheroid viability
Test: Anticancer human tumor 782815-120-R-J1-PDC patient-derived colon adenocarcinoma cell line growth inhibition [RAS]
Settings: for IC50: curve of first compound; for viability, T/C: stronger effect = lower value
From the text: RAS pathway inhibitors in Combinations in Complex Spheroids
A high-throughput screen of multi-cell type tumor spheroids was designed to identify active combinations of RAS pathway inhibitors and targeted small molecules. Complex spheroids include a stromal component modeled by human endothelial cells (HUVEC) and fibroblasts modeled by human mesenchymal stem cells (MSCs). The concentration ranges selected for each drug and investigational agent were based upon clinically achievable concentrations if the clinical Cmax of the agent was known.
Compounds. The drugs and investigational agents: abemaciclib (NSC768073), cobimetinib (NSC768068), divarasib (GDC6063, NSC841802), docetaxel (NSC628503), GDC-1971 (RLY-1971, NSC841576), gemcitabine (NSC613327), inavolisib (NSC800729), ipatasertib (NSC767898), KB-0742 (NSC834161), MRTX-1133 (NSC836407), osimertinib (NSC779217), RMC-4630 (NSC839698), RMC-6236 (NSC851965), RMC-6291 (NSC852671), Ro-3306 (NSC812927), sapanisertib (NSC764658), SN-38 (NSC673596), staurosporine (NSC755774), SY5609 (NSC837396), and tovorafenib (DAY101, NSC766906), were obtained from the National Cancer Institute (NCI) Developmental Therapeutics Program Chemical Repository. The FDA-approved anticancer drug set is available from the NCI Developmental Therapeutics Program. […] The stock solutions were prepared in dimethyl sulfoxide (DMSO, Sigma-Aldrich, St. Louis, MO, cat. D2650) at 800-fold the tested concentration and stored at -70 degrees C prior to their use. All drugs and investigational agents were tested over a range starting from a high concentration at or near the clinical Cmax and decreasing in half-log increments. If the clinical Cmax for an agent had not been determined, the highest concentration tested was 10 microM.
Cell Culture. All cells were maintained in an incubator at 37 degrees C and 5% CO2 with 95% humidity. The PDC lines were cultured according to standard operating procedures established by the NCI PDMR. All PDCs were thawed and cultured in Matrigel-coated flasks prepared with a working solution of 1X Ham's F-12 nutrient mix, without supplementation (Invitrogen, Waltham, MA, cat. 11765054), 100 U/mL penicillin-streptomycin (Invitrogen, cat. 15140122), and 2.5% Matrigel (Corning Inc., Corning, NY, cat. 354248) for the first three passages. The 362531-283-R-J2-PDC and 782815-120-R-J1-PDC lines were cultured in 6C/Colon 1B media, which includes advanced DMEM/F-12 (Thermo Fisher Scientific, cat. 12634028), 10 mM HEPES (Thermo Fisher Scientific, cat. 15630080), 1X GlutaMAX supplement (Thermo Fisher Scientific, cat. 35050061), 0.1 mg/mL primocin (InvivoGen, San Diego, CA, cat. ant-pm-2), 10% defined fetal bovine serum, heat inactivated (HyClone Laboratories Inc., Logan, UT, cat. SH30070.03HI), 50% L-WRN conditioned media (ATCC, cat. CRL-3276), 1.25 mM N-Acetyl-L-cysteine (Sigma-Aldrich, cat. A9165), 10 mM nicotinamide (Sigma-Aldrich, cat. N0636), 1X B-27 supplement (Thermo Fisher Scientific, cat. 17504044), 1X N-2 supplement (Thermo Fisher Scientific, cat. 17502048), 50 ng/mL human EGF (Thermo Fisher Scientific, cat. PHG0311), and 10 microM Y-27632 dihydrochloride (Tocris Bioscience, cat. 1254). The K12877-001-R-J1-PDC line was cultured in 6I media, which includes all 6C/Colon 1B media plus 10 ng/mL human FGF-10 (PeproTech, cat. 100-26), 1 ng/mL human FGF-2 (PeproTech, cat. 100-18B), 1 µM prostaglandin E2 (Tocris Bioscience, cat. 2296), […] hydrocortisone (Sigma-Aldrich, cat. H4001), and […] bovine insulin (Sigma-Aldrich, cat. I6634). The K86415-001-R-J1-PDC line was cultured in 6D media, which includes all 6C/Colon 1B media components minus the L-WRN conditioned media. The 485176-168-R4-J1-PDC was cultured in PANC media, which includes all 6C/Colon 1B media plus 100 ng/mL human FGF-10 (PeproTech, cat. 100-26), 500 nM SB-431542 (Selleckchem, cat. S1067), and 10 nM gastrin (Tocris Bioscience, cat. 3006). […]

[1] = second compound 0.0316 µM, first compound 0.0316 µM
[2] = second compound 0.0316 µM, first compound 0.1 µM
[3] = second compound 0.1 µM, first compound 0.0316 µM
[4] = second compound 0.1 µM, first compound 0.1 µM
[5] = second compound 0.316 µM, first compound 0.0316 µM
[6] = second compound 0.316 µM, first compound 0.1 µM
[7] = second compound 1 µM, first compound 0.0316 µM
[8] = second compound 1 µM, first compound 0.1 µM
[9] = second compound 3.16 µM, first compound 0.0316 µM
[10] = second compound 3.16 µM, first compound 0.1 µM
[11] = second compound 10 µM, first compound 0.0316 µM
[12] = second compound 10 µM, first compound 0.1 µM
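Further: spheroids exposed to compounds for 7 days before reading.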
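Wherever viability, T/C is given: 100% = DMSO vehicle control viability.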

Work on CC(C)n1nc(-c2ccc3oc(N)nc3c2)c2c(N)ncnc21 + C#Cc1c(F)ccc2cc(O)cc(-c3ncc4c(N5CC6CCC(C5)N6)nc(OCC56CCCN5CC(F)C6)nc4c3F)c12 yielded an IC50 (second compound 0.0316 µM) of over 0.1 µM, an IC50 (second compound 0.1 µM) of over 0.1 µM and an IC50 (second compound 0.316 µM) of over 0.1 µM. It also gave an IC50 (second compound 1 µM) of over 0.1 µM, an IC50 (second compound 3.16 µM) of over 0.1 µM and an IC50 (second compound 10 µM) of over 0.1 µM. The viability, T/C (second compound 0.0316 µM, first compound 0.000316 µM) was 97%, the viability, T/C (second compound 0.0316 µM, first compound 0.001 µM) was 100% and the viability, T/C (second compound 0.0316 µM, first compound 0.00316 µM) was 105%. For the same molecule, the viability, T/C (second compound 0.0316 µM, first compound 0.01 µM) was 98.1%, the viability, T/C [1] was 91.8% and the viability, T/C [2] was 85.2%. The viability, T/C (second compound 0.1 µM, first compound 0.000316 µM) was 99.1%, the viability, T/C (second compound 0.1 µM, first compound 0.001 µM) was 91.4% and the viability, T/C (second compound 0.1 µM, first compound 0.00316 µM) was 101%. It also gave a viability, T/C (second compound 0.1 µM, first compound 0.01 µM) of 89.6%, a viability, T/C [3] of 97% and a viability, T/C [4] of 81.6%. For the same molecule, the viability, T/C (second compound 0.316 µM, first compound 0.000316 µM) was 96.6%, the viability, T/C (second compound 0.316 µM, first compound 0.001 µM) was 105% and the viability, T/C (second compound 0.316 µM, first compound 0.00316 µM) was 94.5%. The viability, T/C (second compound 0.316 µM, first compound 0.01 µM) was 108%, the viability, T/C [5] was 88.1% and the viability, T/C [6] was 84.1%. It also gave a viability, T/C (second compound 1 µM, first compound 0.000316 µM) of 99.7%, a viability, T/C (second compound 1 µM, first compound 0.001 µM) of 101% and a viability, T/C (second compound 1 µM, first compound 0.00316 µM) of 88.6%. For the same molecule, the viability, T/C (second compound 1 µM, first compound 0.01 µM) was 105%, the viability, T/C [7] was 93.7% and the viability, T/C [8] was 83.8%. The viability, T/C (second compound 3.16 µM, first compound 0.000316 µM) was 98.7%, the viability, T/C (second compound 3.16 µM, first compound 0.001 µM) was 101% and the viability, T/C (second compound 3.16 µM, first compound 0.00316 µM) was 93.5%. The viability, T/C (second compound 3.16 µM, first compound 0.01 µM) was 92.6%, the viability, T/C [9] was 92.1% and the viability, T/C [10] was 84.4%. For the same molecule, the viability, T/C (second compound 10 µM, first compound 0.000316 µM) was 101%, the viability, T/C (second compound 10 µM, first compound 0.001 µM) was 95.3% and the viability, T/C (second compound 10 µM, first compound 0.00316 µM) was 85.3%. The viability, T/C (second compound 10 µM, first compound 0.01 µM) was 92.8%, the viability, T/C [11] was 88.8% and the viability, T/C [12] was 74.7%.

With C[C@@H](NC(=O)c1ncnc(N)c1Cl)c1ncc(C(=O)Nc2cc(C(F)(F)F)c(Cl)cn2)s1 + C#Cc1c(F)ccc2cc(O)cc(-c3ncc4c(N5CC6CCC(C5)N6)nc(OCC56CCCN5CC(F)C6)nc4c3F)c12 the IC50 (second compound 0.0316 µM) was over 10 µM, the IC50 (second compound 0.1 µM) was over 10 µM and the IC50 (second compound 0.316 µM) was over 10 µM. It also gave an IC50 (second compound 1 µM) of over 10 µM, an IC50 (second compound 3.16 µM) of over 10 µM and an IC50 (second compound 10 µM) of over 10 µM. The viability, T/C [1] was 105%, the viability, T/C [2] was 101% and the viability, T/C (second compound 0.0316 µM, first compound 0.316 µM) was 108%. The viability, T/C (second compound 0.0316 µM, first compound 1 µM) was 90.7%, the viability, T/C (second compound 0.0316 µM, first compound 3.16 µM) was 85.2% and the viability, T/C (second compound 0.0316 µM, first compound 10 µM) was 72.3%. The viability, T/C [3] was 98.5%, the viability, T/C [4] was 111% and the viability, T/C (second compound 0.1 µM, first compound 0.316 µM) was 96.4%. The viability, T/C (second compound 0.1 µM, first compound 1 µM) was 99.1%, the viability, T/C (second compound 0.1 µM, first compound 3.16 µM) was 81.4% and the viability, T/C (second compound 0.1 µM, first compound 10 µM) was 71.4%. For the same molecule, the viability, T/C [5] was 104%, the viability, T/C [6] was 108% and the viability, T/C (second compound 0.316 µM, first compound 0.316 µM) was 96.7%. For the same molecule, the viability, T/C (second compound 0.316 µM, first compound 1 µM) was 95.9%, the viability, T/C (second compound 0.316 µM, first compound 3.16 µM) was 80.4% and the viability, T/C (second compound 0.316 µM, first compound 10 µM) was 70.5%. It also gave a viability, T/C [7] of 105%, a viability, T/C [8] of 114% and a viability, T/C (second compound 1 µM, first compound 0.316 µM) of 111%. It also gave a viability, T/C (second compound 1 µM, first compound 1 µM) of 82.5%, a viability, T/C (second compound 1 µM, first compound 3.16 µM) of 71.1% and a viability, T/C (second compound 1 µM, first compound 10 µM) of 61.5%. The viability, T/C [9] was 99.3%, the viability, T/C [10] was 101% and the viability, T/C (second compound 3.16 µM, first compound 0.316 µM) was 91.6%. It also gave a viability, T/C (second compound 3.16 µM, first compound 1 µM) of 87.3%, a viability, T/C (second compound 3.16 µM, first compound 3.16 µM) of 76.4% and a viability, T/C (second compound 3.16 µM, first compound 10 µM) of 65.7%. It also gave a viability, T/C [11] of 105%, a viability, T/C [12] of 100% and a viability, T/C (second compound 10 µM, first compound 0.316 µM) of 92.8%. It also gave a viability, T/C (second compound 10 µM, first compound 1 µM) of 86.2%, a viability, T/C (second compound 10 µM, first compound 3.16 µM) of 71.6% and a viability, T/C (second compound 10 µM, first compound 10 µM) of 57.2%.
